From ChEMBL document CHEMBL5325431, “Synthesis of thieno[3,2-e]pyrrolo[1,2-a]pyrimidine derivatives and their precursors containing 2-aminothiophenes fragments as anticancer agents for therapy of pulmonary metastatic melanoma” (Eur J Med Chem, 2023)

What was measured:
[1] = tested on: B16-F10; experiment: Cytotoxicity against mouse B16-F10 cells assessed as cell survival incubated for 24 hrs by alamarblue staining based analysis; type: functional; settings: B16-F10, 24 h
[2] = Cytotoxicity against NF2-deficient mouse MEF cells assessed as cell survival incubated for 24 hrs by alamarblue staining based analysis; type: toxicity
[3] = tested on: HCT-116; experiment: Cytotoxicity against human HCT-116 cells assessed as inhibition of cell growth; type: functional, cell-based
[4] = tested on: U-87 MG; experiment: Cytotoxicity against human U-87 MG cells assessed as inhibition of cell growth; type: functional, cell-based, U-87MG ATCC
[5] = tested on: B16-F10; experiment: Antitumor activity against metastatic mouse B16-F10 cells implanted in C57BL/6 mouse assessed as number of lung metastases at 9 to 9.5 mg/kg, ip administered for 22 days by histological analysis (reference value: 223 +/- 12); type: functional; settings: dose 9-9.5 mg/kg, time 22 day
[6] = tested on: B16-F10; experiment: Antitumor activity against metastatic mouse B16-F10 cells implanted in C57BL/6 mouse assessed as number of lung metastases at 9 to 9.5 mg/kg, ip administered for 12 days by histological analysis (reference value: 150 +/- 7); type: functional; settings: dose 9-9.5 mg/kg, time 12 day
[7] = tested on: B16-F10; experiment: Antitumor activity against metastatic mouse B16-F10 cells implanted in C57BL/6 mouse assessed as number of lung metastases at 4.6 to 42 mg/kg, ip administered every 3rd day for 22 days measured on day 23 by histological analysis (reference value: 223 +/- 12); type: functional; settings: dose 4.6-42 mg/kg, time 23 day
[8] = tested on: B16-F10; experiment: Antitumor activity against metastatic mouse B16-F10 cells implanted in C57BL/6 mouse assessed as number of lung metastases at 9 to 9.5 mg/kg, ip administered for 15 days by histological analysis (reference value: 175 +/- 10); type: functional; settings: dose 9-9.5 mg/kg, time 15 day
[9] = tested on: B16-F10; experiment: Antitumor activity against metastatic mouse B16-F10 cells implanted in C57BL/6 mouse assessed as number of lung metastases at 9 to 9.5 mg/kg, ip administered for 19 days by histological analysis (reference value: 190 +/- 9); type: functional; settings: dose 9-9.5 mg/kg, time 19 day
[10] = tested on: MCF7; experiment: Cytotoxicity against human MCF7 cells assessed as inhibition of cell growth; type: functional, cell-based
[11] = tested on: JAR; experiment: Cytotoxicity against human JAR cells assessed as inhibition of cell growth; type: functional, cell-based

CCOC(=O)C1=C2NC(=O)c3c(sc4c3CCCC4)N2/C(=C/C(=O)c2cccs2)C1=O
IC50 [1]: 58.6 µM
IC50 at 24 h [2]: > 100 µM

CCOC(=O)c1c(NC(=C\C(=O)c2ccc(C)cc2)/C(O)=C(\C#N)C(N)=O)sc(C)c1C
IC50 [1]: 17.9 µM
IC50 at 24 h [2]: > 100 µM

NC(=O)C1=C2NC(=O)c3c(sc4c3CCCC4)N2/C(=C/C(=O)c2ccccc2)C1=O
IC50 [1]: 56.9 µM
IC50 at 24 h [2]: > 100 µM

COc1ccc(C(=O)/C=C2\C(=O)C(C(N)=O)=C3NC(=O)c4c(sc5c4CCCC5)N32)cc1
IC50 [1]: 42.6 µM
IC50 at 24 h [2]: > 100 µM

CCOC(=O)C1=C(N)N(c2sc3c(c2C(=O)OCC)CCCC3)/C(=C/C(=O)c2cccs2)C1=O
IC50 [1]: 57 µM
IC50 at 24 h [2]: > 100 µM

CCOC(=O)c1c(NC(=C\C(=O)c2ccccc2)/C(O)=C(\C#N)C(N)=O)sc2c1CCCC2
IC50 [1]: 14.1 µM
IC50 at 24 h [2]: > 100 µM

CCOC(=O)C1=C2NC(=O)c3c(sc(C)c3C)N2/C(=C/C(=O)c2ccc(Cl)cc2)C1=O
IC50 [1]: 64.6 µM
IC50 at 24 h [2]: > 100 µM

CCOC(=O)/C(C#N)=C(O)/C(=C/C(=O)c1ccc(C)cc1)Nc1sc2c(c1C(=O)OCC)CCCC2
IC50 [1]: 28.9 µM
IC50 at 24 h [2]: > 100 µM

CCOC(=O)C1=C(N)N(c2sc(C)c(C)c2C(=O)OCC)/C(=C/C(=O)c2ccc(OC)cc2)C1=O
IC50 [1]: 41.4 µM
IC50 at 24 h [2]: > 100 µM

CCOC(=O)c1c(N/C(=C\C(=O)c2ccc(OC)cc2)C(O)=C(C#N)C#N)sc2c1CCCCC2
IC50 [1]: > 100 µM
IC50 at 24 h [2]: > 100 µM

CCOC(=O)C1=C(N)N(c2sc(C)c(C)c2C(=O)OCC)/C(=C/C(=O)c2ccccc2)C1=O
IC50 [1]: 41.2 µM
IC50 at 24 h [2]: > 100 µM

O=C(CSc1nc2sc3c(c2c(=O)n1Cc1ccccc1)CCCC3)NNC(=S)Nc1ccccc1
IC50 [3]: 5.33 µM

CCOC(=O)/C(C#N)=C(O)/C(=C/C(=O)c1ccc(C)cc1)Nc1sc(C)c(C)c1C(=O)OCC
IC50 [1]: 44.2 µM
IC50 at 24 h [2]: > 100 µM

CCOC(=O)C1=C2NC(=O)c3c(sc(C)c3C)N2/C(=C/C(=O)c2ccc(C)cc2)C1=O
IC50 [1]: 43.6 µM
IC50 at 24 h [2]: > 100 µM

CCOC(=O)c1c(N2C(N)=C(C(N)=O)C(=O)/C2=C\C(=O)c2ccc(OC)cc2OC)sc2c1CCCC2
IC50 [1]: 48.2 µM
IC50 at 24 h [2]: > 100 µM

CCOC(=O)/C(C#N)=C(O)/C(=C/C(=O)c1ccccc1)Nc1sc2c(c1C(=O)OCC)CCCC2
IC50 [1]: 38.6 µM
IC50 at 24 h [2]: > 100 µM

CCOC(=O)c1c(N)sc(C(=O)Nc2ccccc2)c1-c1ccccc1
IC50 [4]: 7.4 µM

CCOC(=O)c1c(N2C(N)=C(C(N)=O)C(=O)/C2=C\C(=O)c2ccccc2)sc2c1CCCCC2
IC50 [1]: 22.2 µM
IC50 at 24 h [2]: > 100 µM

NC(=O)C1=C2NC(=O)c3c(sc4c3CCCCC4)N2/C(=C/C(=O)c2ccccc2)C1=O
IC50 [1]: 24.5 µM
IC50 at 24 h [2]: > 100 µM

CC(=O)O[C@H]1C(=O)[C@@]2(C)[C@H]([C@H](OC(=O)c3ccccc3)[C@]3(O)C[C@H](OC(=O)[C@H](O)[C@@H](NC(=O)c4ccccc4)c4ccccc4)C(C)=C1C3(C)C)[C@]1(OC(C)=O)CO[C@@H]1C[C@@H]2O [PACLITAXEL]
Activity [5]: 80
Activity [6]: 158
Activity [7]: 50
Activity [8]: 125
Activity [9]: 97

CCOC(=O)c1c(N2C(N)=C(C(N)=O)C(=O)/C2=C\C(=O)c2ccc(OCC)cc2)sc2c1CCCC2
IC50 [1]: > 100 µM
IC50 at 24 h [2]: > 100 µM

Cc1ccc(C(=O)/C=C2\C(=O)C(C#N)=C3NC(=O)c4c(sc5c4CCCCC5)N32)cc1
IC50 [1]: 8.8 µM
IC50 at 24 h [2]: > 100 µM

CCOC(=O)c1c(N2C(N)=C(C(N)=O)C(=O)/C2=C\C(=O)c2ccc(Cl)cc2)sc2c1CCCC2
IC50 [1]: 56.5 µM
IC50 at 24 h [2]: > 100 µM

CCOC(=O)c1c(N/C(=C\C(=O)c2ccc(C)cc2)C(O)=C(C#N)C#N)sc2c1CCCCC2
IC50 [1]: > 100 µM
IC50 at 24 h [2]: > 100 µM

CCOC(=O)C1=C(N)N(c2sc3c(c2C(=O)OCC)CCCCC3)/C(=C/C(=O)c2ccccc2)C1=O
IC50 [1]: 36.2 µM
IC50 at 24 h [2]: > 100 µM

CCOC(=O)C1=C(N)N(c2sc3c(c2C(=O)OCC)CCCC3)/C(=C/C(=O)c2ccc(OC)cc2)C1=O
IC50 [1]: > 100 µM
IC50 at 24 h [2]: > 100 µM

CCOC(=O)c1c(N/C(=C\C(=O)c2ccc(OC)cc2)C(O)=C(C#N)C#N)sc2c1CCCC2
IC50 [1]: > 100 µM
IC50 at 24 h [2]: > 100 µM

CCOC(=O)/C(C#N)=C(O)/C(=C/C(=O)c1ccc(OC)cc1)Nc1sc2c(c1C(=O)OCC)CCCC2
IC50 [1]: 19.7 µM
IC50 at 24 h [2]: > 100 µM

CCOC(=O)c1c(NC(=C\C(=O)c2ccc(C)cc2)/C(O)=C(\C#N)C(N)=O)sc2c1CCCC2
IC50 [1]: 11.9 µM
IC50 at 24 h [2]: > 100 µM

N#CC1=C2NC(=O)c3c(sc4c3CCCCCC4)N2/C(=C/C(=O)c2ccccc2)C1=O
IC50 [1]: 12.6 µM
IC50 at 24 h [2]: > 100 µM

CCOC(=O)c1c(N2C(N)=C(C(N)=O)C(=O)/C2=C\C(=O)c2ccc(OC)cc2)sc2c1CCCC2
IC50 [1]: 48.1 µM
IC50 at 24 h [2]: > 100 µM

CCOC(=O)C1=C(N)N(c2sc3c(c2C(=O)OCC)CCCC3)/C(=C/C(=O)c2ccc(C)cc2)C1=O
IC50 [1]: 68.4 µM
IC50 at 24 h [2]: > 100 µM

CCOC(=O)C1=C(N)N(c2sc3c(c2C(=O)OCC)CCCC3)/C(=C/C(=O)c2ccccc2)C1=O
IC50 [1]: 46.7 µM
IC50 at 24 h [2]: > 100 µM

CCOC(=O)c1c(N2C(N)=C(C(N)=O)C(=O)/C2=C\C(=O)c2ccccc2)sc2c1CCCC2
IC50 [1]: 52.1 µM
IC50 at 24 h [2]: > 100 µM

CCOC(=O)C1=C2NC(=O)c3c(sc4c3CCCC4)N2/C(=C/C(=O)c2ccc(OC)cc2OC)C1=O
IC50 [1]: 32.6 µM
IC50 at 24 h [2]: > 100 µM

CCOC(=O)C1=C(N)N(c2sc(C)c(C)c2C(=O)OCC)/C(=C/C(=O)c2ccc(Cl)cc2)C1=O
IC50 [1]: 57.3 µM
IC50 at 24 h [2]: > 100 µM

CCOC(=O)C1=C2NC(=O)c3c(sc4c3CCCC4)N2/C(=C/C(=O)c2ccccc2)C1=O
IC50 [1]: 46.9 µM
IC50 at 24 h [2]: > 100 µM

CCOC(=O)C1=C(N)N(c2sc3c(c2C(=O)OCC)CCCCC3)/C(=C/C(=O)c2ccc(C)cc2)C1=O
IC50 [1]: 25.2 µM
IC50 at 24 h [2]: > 100 µM

CCOC(=O)C1=C2NC(=O)c3c(sc4c3CCCC4)N2/C(=C/C(=O)c2ccc(Cl)cc2)C1=O
IC50 [1]: 54.4 µM
IC50 at 24 h [2]: > 100 µM

CCOC(=O)C1=C2NC(=O)c3c(sc4c3CCCC4)N2/C(=C/C(=O)c2ccc(C)cc2)C1=O
IC50 [1]: 40.5 µM
IC50 at 24 h [2]: > 100 µM

CCOC(=O)C1=C2NC(=O)c3c(sc4c3CCCCCC4)N2/C(=C/C(=O)c2ccccc2)C1=O
IC50 [1]: 23.6 µM
IC50 at 24 h [2]: > 100 µM

CCOC(=O)C1=C(Nc2ccccc2)S/C(=C\C2CCCCC2)C1=O
IC50 [10]: 45.3 µM
IC50 [11]: 95.2 µM

CCOC(=O)c1c(N2C(N)=C(C#N)C(=O)/C2=C\C(=O)c2ccc(OC)cc2)sc2c1CCCCC2
IC50 [1]: 9.1 µM
IC50 at 24 h [2]: > 100 µM

CCOC(=O)C1=C(N)N(c2sc3c(c2C(=O)OCC)CCCC3)/C(=C/C(=O)c2ccc(OC)cc2OC)C1=O
IC50 [1]: 54.1 µM
IC50 at 24 h [2]: > 100 µM
